Results reported in publication PMC7855981, “Rho-Kinase 1/2 Inhibition Prevents Transforming Growth Factor-β-Induced Effects on Pulmonary Remodeling and Repair” (Frontiers in Pharmacology, 2021).

How the values were obtained:
ROCK1 [1] = target: T1, ROCK1 (Homo sapiens, UniProt Q13464); experiment: ADP-Glo kinase assay with […] ATP; type: biochemical
T1 construct: GST-tagged 1–535 human ROCK1

ROCK2 [2] = target: T2, ROCK2 (Homo sapiens, UniProt O75116); experiment: ADP-Glo kinase assay with […] ATP; also KINOMEscan competition at […] ([…] vs CTRL); type: biochemical
T2 construct: GST-tagged 1–552 human ROCK2
T2 sequence (O75116 1-552): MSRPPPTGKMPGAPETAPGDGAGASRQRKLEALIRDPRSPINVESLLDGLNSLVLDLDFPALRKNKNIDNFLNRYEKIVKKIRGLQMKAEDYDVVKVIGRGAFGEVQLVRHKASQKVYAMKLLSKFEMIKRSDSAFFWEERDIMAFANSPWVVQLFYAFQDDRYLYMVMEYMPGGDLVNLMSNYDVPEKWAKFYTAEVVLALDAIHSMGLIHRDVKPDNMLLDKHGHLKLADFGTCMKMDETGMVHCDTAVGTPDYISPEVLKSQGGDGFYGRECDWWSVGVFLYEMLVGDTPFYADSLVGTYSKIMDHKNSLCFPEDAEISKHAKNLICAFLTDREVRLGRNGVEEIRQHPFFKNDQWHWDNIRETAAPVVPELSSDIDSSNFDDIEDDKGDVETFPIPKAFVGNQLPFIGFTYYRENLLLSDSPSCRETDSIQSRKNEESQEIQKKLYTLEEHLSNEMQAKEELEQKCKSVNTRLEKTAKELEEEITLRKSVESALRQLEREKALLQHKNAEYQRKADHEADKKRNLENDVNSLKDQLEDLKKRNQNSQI

VRK2 = VRK2 (Homo sapiens, UniProt Q86Y07); experiment: KINOMEscan competition binding, single concentration […] ([…] of control); conditions: read-out: % CTRL at 100 nM
VRK2, sequence (Q86Y07 whole entry): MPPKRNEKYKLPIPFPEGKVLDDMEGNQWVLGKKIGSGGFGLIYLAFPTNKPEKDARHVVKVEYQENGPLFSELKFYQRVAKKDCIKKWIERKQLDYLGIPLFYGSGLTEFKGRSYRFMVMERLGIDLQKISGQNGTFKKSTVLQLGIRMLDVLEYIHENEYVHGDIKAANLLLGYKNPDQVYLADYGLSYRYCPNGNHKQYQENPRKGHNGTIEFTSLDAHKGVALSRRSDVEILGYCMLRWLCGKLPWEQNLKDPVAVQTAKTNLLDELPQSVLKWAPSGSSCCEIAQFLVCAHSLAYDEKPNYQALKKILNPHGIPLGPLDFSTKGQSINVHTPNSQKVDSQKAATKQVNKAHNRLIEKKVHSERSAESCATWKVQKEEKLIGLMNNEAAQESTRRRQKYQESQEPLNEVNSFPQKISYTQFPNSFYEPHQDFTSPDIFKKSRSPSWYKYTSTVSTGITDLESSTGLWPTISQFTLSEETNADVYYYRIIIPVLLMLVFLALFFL

ROCK2 [3] = target: T2, ROCK2; experiment: ADP-Glo kinase assay with […] ATP; also KINOMEscan competition at […] ([…] CTRL); type: biochemical
ROCK1 [4] = target: T1, ROCK1; experiment: as above; type: biochemical

T1 sequence (Q13464 1-535): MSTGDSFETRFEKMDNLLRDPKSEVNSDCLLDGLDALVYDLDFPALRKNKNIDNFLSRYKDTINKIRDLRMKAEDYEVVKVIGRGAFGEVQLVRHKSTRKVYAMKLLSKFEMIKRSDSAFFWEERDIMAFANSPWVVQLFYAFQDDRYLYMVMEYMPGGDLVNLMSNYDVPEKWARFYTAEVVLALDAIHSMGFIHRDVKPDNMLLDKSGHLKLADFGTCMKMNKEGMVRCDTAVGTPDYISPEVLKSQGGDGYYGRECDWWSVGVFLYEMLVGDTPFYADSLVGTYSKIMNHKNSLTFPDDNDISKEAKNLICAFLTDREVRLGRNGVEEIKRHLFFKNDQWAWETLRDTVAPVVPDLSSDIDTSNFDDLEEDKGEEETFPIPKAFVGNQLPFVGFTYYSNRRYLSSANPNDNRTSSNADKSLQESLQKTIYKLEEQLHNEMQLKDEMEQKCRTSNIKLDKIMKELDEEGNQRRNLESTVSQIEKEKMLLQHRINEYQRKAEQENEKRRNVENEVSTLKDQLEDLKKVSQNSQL

Row | SMILES | IC50 (ROCK1 [1]) [nM] | IC50 (ROCK2 [2]) [nM] | remaining binding at 0.1 µM (VRK2) [%] | IC50 (ROCK2 [3]) [nM] | IC50 (ROCK1 [4]) [nM]
1 | Cn1cc(C(=O)Nc2cccc(-c3nnc(Nc4ccc5[nH]ncc5c4Cl)s3)c2)cn1 [A11, N-(3-(5-((4-chloro-1H-indazol-5-yl)amino)-1,3,4-thiadiazol-2-yl)phenyl)-1-methyl-1H-pyrazole-4-carboxamide] | 341 ± 38 | 6.1 ± 1.4 | – | – | –
2 | CCCN[C@H]1CCc2nc(NC(=O)c3cccc([C@@H](C)NC(=O)c4ccc(OC)c(OC)c4)c3)sc2C1 [compound 31, 3,4-dimethoxy-N-((R)-1-(3 - (((S) - 6 - (propylamino) - 4,5,6, 7 tetrahydrobenzo [d]thiazol-2-yl)carbamoyl)phenyl)ethyl) benzamide] | – | – | 9.3 | 4 ± 0.6 | 2.9 ± 0.5
